Source: article PMC5371824, “Phosphatidylinositol (4,5)-bisphosphate dynamically regulates the K2P background K^+ channel TASK-2” (Scientific Reports, 2017)
Changes are numbered by the printed parent chain.

Legend:
[1] = target: T1, TASK-2 (Mus musculus, UniProt F6V9U5); assay: Excised inside-out patch recording from HEK-293 cells over-expressing TASK-2; type: biochemical; conditions: 1 mM, inside-out patch
T1 construct: expressed in transfected cells; host or cells: HEK-293
T1 sequence (F6V9U5 1-502): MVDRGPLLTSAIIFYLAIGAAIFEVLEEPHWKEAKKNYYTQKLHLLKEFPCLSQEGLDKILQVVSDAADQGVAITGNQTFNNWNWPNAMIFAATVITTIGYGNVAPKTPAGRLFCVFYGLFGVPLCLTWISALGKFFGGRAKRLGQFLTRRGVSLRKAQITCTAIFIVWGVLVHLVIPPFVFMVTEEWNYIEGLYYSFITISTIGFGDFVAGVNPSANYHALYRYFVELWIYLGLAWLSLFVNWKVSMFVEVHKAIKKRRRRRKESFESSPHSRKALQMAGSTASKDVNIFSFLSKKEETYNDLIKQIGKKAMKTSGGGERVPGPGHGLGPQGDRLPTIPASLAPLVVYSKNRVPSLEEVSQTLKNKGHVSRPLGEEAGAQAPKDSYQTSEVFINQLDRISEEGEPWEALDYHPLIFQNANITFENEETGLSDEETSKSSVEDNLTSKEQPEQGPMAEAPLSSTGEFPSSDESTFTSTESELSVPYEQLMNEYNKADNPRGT

[2] = target: T2, TASK-2-H327C (Mus musculus, UniProt F6V9U5, H327C); assay: Excised inside-out patch recording, TASK-2-H327C mutant; type: biochemical; conditions: 1 mM, brief intracellular exposure in the presence of TPeA
T2 construct: expressed in transfected cells; host or cells: HEK-293
T2 sequence (F6V9U5 1-502 H327C): T1 sequence (F6V9U5 1-502) with H327C
Description: Figure 6 Scanning of potential sites of interaction of TASK-2 with PI(4,5)P2 by cysteine mutagenesis of intracellular basic residues. (A) Schematic representation of TASK-2 topology showing the sequences of segments of the protein predicted to be intracellular or intracellular-facing. Basic residues are highlighted in red. (B) Recording from an excised inside-out patch of membrane taken from a HEK-293 cell over-expressing TASK-2. The patch was held at −60 mV in the presence of 1 mM ATP. At the intervals indicated by the boxes the intracellular aspect of the membrane was exposed to 300 μM Neomycin and then to 100 μM TPeA. At the end of the TPeA period the patch was additionally exposed to 1 mM MTSET as shown by the black box. (C and D) experiments as in (B), but with inside-out membrane patches obtained from cells expressing the mutants TASK-2-H327C and TASK-2-K297C respectively. In D the reducing agent DTT was also added at 2 mM. (E) Summary of experiments comparing the current before and after treatment with MTSET. […]
Recordings in the inside-out isolated patch configuration were performed in the gap-free mode at −60 mV. […] Traces shown are prints from crude Clampfit screen shots and quantification was done using the average currents were calculated at intervals using Clampfit after baseline adjustment.

[3] = test system: TASK-2-R438C; assay: Excised inside-out patch recording, TASK-2-R438C mutant; type: biochemical, Mus musculus; design: key to MTSET effect: ✓ under “MTSET effect” indicates a significant increase in current after treatment with the methanesulfonate reagent; — in all cases stands for no significant effect
Description: Mus musculus TASK-2 (GenBank accession No. AF319542) plasmid was that obtained from mouse kidney. The cDNAs was subcloned into the pCR3.1 vector. Mutations were made by site-directed mutagenesis into the pCR3.1 vector as previously described[69] and confirmed by sequencing. HEK-293 cells were cultured in Dulbecco’s modified Eagle’s medium (DMEM) and F12 Ham’s medium at a 1:1 ratio and supplemented with 10% fetal calf serum at 37 °C in 5% CO2. For electrophysiological experiments, transient transfections were performed by electroporation, using CD8 cotransfection to identify effectively transfected cells. […] Experiments were performed 4–8 h after electroporation. In experiments with the voltage-sensitive phosphatase TASK-2 or its mutants were co-electroporated with a pCR3.1-DrVSP-IRES-CD8 vector.
Recordings in the inside-out isolated patch configuration were performed in the gap-free mode at −60 mV. The inside aspect of the patch was bathed with a solution containing in mM: 10 KCl, 10 Glucose, 1 MgCl2, 10 EGTA, 1 Na3ATP, 0.1 GTP, 6.8 g/100 ml Sucrose, 10 Hepes/Tris, pH 7.4. The pipette contained in mM: 140 KCl, 10 Glucose, 6.8 g/100 ml Sucrose, 10 Hepes/Tris pH 7.4. For isolated patches, borosilicate capillaries (Harvard Apparatus GC150F-10 1.5 ODx0.86 ID) were fire polished to 4–5 MΩ and covered in beeswax. Acquisition was at 10 kHz with filter at 3 kHz (4-pole Bessel) and analysis was done with Clampfit 9.0 (Axon Instruments, Foster City, CA, USA). Traces shown are prints from crude Clampfit screen shots and quantification was done using the average currents were calculated at intervals using Clampfit after baseline adjustment.
Fig. S7. Concentration ependence for the inhibition of TASK-2 mutant R438C by
intracellular neomycin. Recording were obtained from excised inside-out patches of
membrane taken from a HEK-293 cells over-expressing TASK-2-R438C. The patches were
held at -60 mV in the presence of 1 mM intracellular ATP. Neomycin was increased
stepwise from 5 to 500 µM in the solution bathing the intracellular aspect of the membrane. […]

C[N+](C)(C)CCSS(C)(=O)=O.[Cl-] [MTSET, [2-(trimethylammonium)ethyl] methanethiosulfonate chloride]
Effect of MTSET on WT TASK-2 channel activity ([1]; brief intracellular exposure in the presence of TPeA): Neither WT nor H327C channel activity is affected
Effect of MTSET on WT TASK-2 activity ([1]; without TPeA, 1 mM ATP, Fig. S4): markedly reduced
Effect of MTSET on TASK-2-H327C channel activity [2]: Neither WT nor H327C channel activity is affected
Effect of MTSET on TASK-2-R438C activity ([3]; 1 mM, in the presence of TPeA, inside-out patch): not affected
MTSET effect ([3]; mutation R438C): —
